Data reported in patent publication US8486974B2 (priority 2007, dated 2013).
Entries after “also recorded” stand apart in the source; their conditions may differ.

Legend:
[1] = system: platelet aggregation in human whole blood; assay: Whole blood aggregation studies (impedance method); assay type: cell-based
Experimental: A 500 μl aliquot of blood was mixed with 500 μl of physiological saline and allowed to incubate at 37° C. for 10 mins in the incubation well of a Chrono-Log Whole Blood Aggregometer model 591/592. The sample was then transferred to the assay well, baseline was established and appropriate volume of reagent as above was added. Aggregation was monitored over 6 mins with impedance output recorded on a chart recorder. When testing inhibitors whole blood was pre-incubated with appropriate concentrations of inhibitor in DMSO at 37° C. for a specified length of time before adding the stimulant (10 mins with stirring). Three different aggregating agents, AA (0.5 mM), ADP (10 μM) and Collagen (5 μg/ml) were used. […] DMSO in high concentrations (above 0.25%) can induce a concentration dependent change in platelet cytoplasmic ionised calcium. Before each experiment a control was run using PRP to obtain normal aggregating responses. A sample was also incubated for 10 min at 37° C. with 10 μl DMSO to ensure it was having no inhibitory effect on the aggregation response.

[2] = system: ADP-induced platelet aggregation; assay: ADP-induced platelet aggregation in PRP; assay type: cell-based, human
Experimental: Blood was collected from healthy volunteers who had not taken any drugs known to affect platelet function for at least 14 days prior to the study. Platelet rich plasma (PRP) and washed platelet suspensions (2.5×10^8 platelets/ml) were prepared from blood as previously described.
Platelet aggregation was measured by light aggregometry as previously described. Briefly, PRP and washed platelet samples (2.5×10^8/ml) were placed in a whole blood ionized calcium lumi-aggregometer (Chronolog Corp., Havertown, Pa., U.S.A), and (BIO/DATA CORPORATION) and incubated for 10 min at 37° C., with stirring at 900 r.p.m., prior to the addition of aggregating agents. Aggregation was initiated by the addition of agonists, and monitored by Aggro-Link software for at least 6 min. For experiments using inhibitors, aggregation was initiated after 10 min preincubation with these compounds
Collagen at different concentrations (3-5 ug/ml) was also used to induce platelet aggregation. The submaximal concentrations of agonists, i.e. the concentrations that gave approximately 95% of the maximal aggregation were used to study the effects of inhibitors of aggregation. Results were expressed in percent changes in maximal light transmission, with 100% representing light transmission of platelet medium alone.

[3] = Hydrolysis in human blood; assay type: in vitro ADME
[4] = system: TXB2 synthesis; assay: Inhibition of TXB2 synthesis in clotting whole blood (ELISA); assay type: cell-based; settings: 1 hour at 37° C., listed as ISAS
Experimental: TXA2 is highly evanescent and unsuitable for direct measurement but its metabolite TXB2 is generally believed to provide a useful index of the parent. […] The samples were then centrifuged. Serum was collected and TXB2 was measured using enzyme linked immunosorbent assay (ELISA) kits obtained from Cayman Chemicals.

[5] = system: typical digestive proteases; assay: Stability in the presence of digestive proteases; assay type: in vitro ADME

Structure (SMILES): CC(=O)Oc1ccccc1C(=O)O[C@H]1CO[C@H]2[C@@H]1OC[C@H]2OC(=O)c1ccccc1O [Compound 2, Isosorbide-2-aspirinate-5-salicylate]
- IC50 ([1]; Homo sapiens, Platelet, arachidonic acid, impedance method, read-out: IC50, platelet aggregation towards arachidonic acid in human whole blood): 17 µM
- potency in inhibition of platelet aggregation in whole blood ([1]; all of the aggregatory stimuli: AA (0.5 mM), ADP (10 μM), Collagen (5 μg/ml)): significantly greater potency than aspirin or ISDA
- potency relative to aspirin, inhibition of ADP-induced platelet aggregation [2]: significantly more potent than aspirin
- half-life [3]: < 2 min
- inhibition of TXB2 (TXA2) synthesis [4]: effective in preventing the TXA2 synthesis; also recorded: significantly more potent than aspirin
- stability in the presence of typical digestive proteases [5]: stable
